This assay has as its target T1, Avi-KRAS G12C (1-169) GppNHp/RAF1 RBD-3×FLAG (52-151) (Homo sapiens, UniProt P01116, G12C).
T1 construct: Avi-KRAS G12C (1-169) GppNHp; Avi (N)
Kind of assay: Raf1 RBD-KRAS G12C-GppNHp disruption assay (protein:protein interaction HTRF). The format is biochemical. In outline: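 HTRF measuring RAF1 RBD binding to GppNHp-loaded KRAS G12C (50 nM) in Tris pH 7.5, 100 mM NaCl, 5 mM MgCl2, 10% DMSO. Compound, KRAS, RBD and detection reagents each added sequentially with 1 h room-temperature incubations; 10-point titration; excitation 320 nm, emission 615 nm; activity as % of DMSO; IC50 derived.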
T1 sequence (P01116 1-169 isoform P01116-2 G12C limits assumed): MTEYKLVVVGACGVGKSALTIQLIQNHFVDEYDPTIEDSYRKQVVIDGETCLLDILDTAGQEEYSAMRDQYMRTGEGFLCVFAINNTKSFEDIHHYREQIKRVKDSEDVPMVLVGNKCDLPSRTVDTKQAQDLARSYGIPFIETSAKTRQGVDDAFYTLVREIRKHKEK
In general, IC50 refers to the concentration that inhibits the measured activity by half. In turn, `C=CC(=O)N1CC[C@@H](N(C)c2nc(OC[C@@]34CCCN3C[C@H](F)C4)nc3cc(-c4ccc(F)c5sc(N)c(C#N)c45)c(F)cc23)[C@@H]1CC` [Compound 22] returned an IC50 of 500 to 5000 nM.

For `C=CC(=O)N1CC[C@@H](N(C)c2nc(OC[C@@]34CCCN3C[C@H](F)C4)nc3c(F)c(-c4ccc(F)c5sc(N)c(C#N)c45)ccc23)[C@@H]1CC` [Compound 23], the IC50 was less than 500 nM.

The compound `C=CC(=O)N1CC[C@@H](N(C)c2nc(OC[C@@]34CCCN3C[C@H](F)C4)nc3cc(-c4ccc(F)c5sc(N)c(C#N)c45)c(C#N)cc23)[C@@H]1CC` [Compound 24] came in with an IC50 of less than 500 nM.

Consider `C=CC(=O)N1CC[C@@H](N(CC)c2nc(OC[C@@]34CCCN3C[C@H](F)C4)nc3cc(-c4ccc(F)c5sc(N)c(C#N)c45)c(C#N)cc23)[C@H]1C` [Compound 25], for which the IC50 was less than 500 nM.

With `C=CC(=O)N1CC[C@@H](N(C)c2nc(OC[C@@]34CCCN3C[C@H](F)C4)nc3cc(-c4ccc(F)c5sc(N)c(C#N)c45)c(C#N)cc23)[C@@H]1C` [Compound 27], the IC50 was less than 500 nM.

The compound `C=CC(=O)N1CC[C@@H](N(C)c2nc(OC[C@@]34CCCN3C[C@H](F)C4)nc3cc(-c4ccc(F)c5sc(N)c(C#N)c45)c(F)cc23)[C@H]1CC` [Compound 29] registered an IC50 of less than 500 nM.

As for `C=CC(=O)N1CC[C@@H](N(C)c2nc(OC[C@@H]3CCCN3CC)nc3c(F)c(-c4ccc(F)c5sc(N)c(C#N)c45)c(C(F)(F)F)cc23)[C@@H]1C` [Compound 30], the IC50 is less than 500 nM.

Consider `C=CC(=O)N1CC[C@@H](N(C)c2nc(OC[C@@]34CCCN3C[C@H](F)C4)nc3cc(-c4ccc(F)c5sc(N)c(C#N)c45)c(F)cc23)[C@@H]1C` [Compound 31], for which the IC50 was less than 500 nM.

In the case of `C=CC(=O)N1CC[C@@H](N(C)c2nc(OC[C@@H]3C[C@@H](F)CN3C)nc3c(F)c(-c4ccc(F)c5sc(N)c(C#N)c45)c(C(F)(F)F)cc23)[C@@H]1C` [Compound 32], the IC50 was less than 500 nM.

For `C=CC(=O)N1CC[C@@H](N(C)c2nc(OC[C@@H]3C[C@@H](OC)CN3C)nc3c(F)c(-c4ccc(F)c5sc(N)c(C#N)c45)c(C(F)(F)F)cc23)[C@@H]1C` [Compound 33], the IC50 was less than 500 nM.

For `C=CC(=O)N1C2CCC1CN(c1nc(OC[C@@]34CCCN3C[C@H](F)C4)nc3c(F)c(-c4ccc(F)c5sc(N)c(C#N)c45)c(C(F)(F)F)cc13)C2` [Compound 34], the IC50 was less than 500 nM.

`C=CC(=O)N1C2CC1CN(c1nc(OC[C@@]34CCCN3C[C@H](F)C4)nc3c(F)c(-c4ccc(F)c5sc(N)c(C#N)c45)c(C(F)(F)F)cc13)C2` [Compound 35] registered a 50% inhibitory concentration (IC50) of less than 500 nM.

Regarding `C=CC(=O)N1C[C@H]2CC[C@@H]1CN2c1nc(OC[C@@]23CCCN2C[C@H](F)C3)nc2c(F)c(-c3ccc(F)c4sc(N)c(C#N)c34)c(C(F)(F)F)cc12` [Compound 36], the IC50 lay in the range of 500 to 5000 nM.

`C=CC(=O)N1CC[C@@H](N(C)c2nc(OC[C@@H]3C[C@@H](OC)CN3CC)nc3c(F)c(-c4ccc(F)c5sc(N)c(C#N)c45)c(C(F)(F)F)cc23)[C@@H]1C` [Compound 101] showed an IC50 of less than 500 nM.

In turn, `C=CC(=O)N1CC[C@@H](N(C)c2nc(OC[C@@H]3C[C@@H](OC)CN3CC)nc3c(F)c(-c4ccc(F)c5sc(N)c(C#N)c45)c(C(F)(F)F)cc23)[C@H]1C` [Compound 104] returned an IC50 of less than 500 nM.

Take `C=CC(=O)N1CC[C@@H](N(C)c2nc(OC[C@@H]3C[C@@H](F)CN3CC)nc3c(F)c(-c4ccc(F)c5sc(N)c(C#N)c45)c(Cl)cc23)[C@@H]1C` [Compound 105]: the IC50 was less than 500 nM.

For the compound `C=CC(=O)N1CCN(c2nc(OC[C@@]34CCCN3C[C@H](F)C4)nc3c(F)c(-c4ccc(F)c5sc(N)c(C#N)c45)c(C(F)(F)F)cc23)C2CC21` (stereo partly drawn) [Compound 106], the concentration for half-maximal inhibition (IC50) is less than 500 nM.

For `C=CC(=O)N1CC[C@@H](N(C)c2nc(OC[C@@H]3C[C@@H](F)CN3CC)nc3c(F)c(-c4ccc(F)c5sc(N)c(C#N)c45)c(C(F)(F)F)cc23)[C@H]1C` [Compound 107], the IC50 is less than 500 nM.

The compound `C=CC(=O)N1C[C@H](N(C)c2nc(OC[C@@]34CCCN3C[C@H](F)C4)nc3c(F)c(-c4ccc(F)c5sc(N)c(C#N)c45)c(C(F)(F)F)cc23)C[C@@H]1C` [Compound 108] displayed an IC50 of less than 500 nM.

Consider `C=CC(=O)N1C[C@H](N(C)c2nc(OC[C@@]34CCCN3C[C@H](F)C4)nc3cc(-c4ccc(F)c5sc(N)c(C#N)c45)c(F)cc23)C[C@@H]1C` [Compound 109], for which the half-inhibitory concentration (IC50) is less than 500 nM.

In turn, `C=CC(=O)N1CC[C@@H](N(C)c2nc(OC[C@@]34CCCN3C[C@H](F)C4)nc3cc(-c4nc(N)cc(C)c4C(F)(F)F)c(F)cc23)[C@H]1C` [Compound 110] came in with an IC50 of less than 500 nM.

The compound `C=CC(=O)N1CC[C@@H](N(C)c2nc(OC[C@@H]3CC4(CC4)CN3C)nc3c(F)c(-c4ccc(F)c5sc(N)c(C#N)c45)c(C(F)(F)F)cc23)[C@@H]1C` [Compound 112] had a half-inhibitory concentration (IC50) of 500 to 5000 nM.

`C=CC(=O)N1CC[C@@H](N(C)c2nc(OC[C@@]34CCCN3C[C@H](F)C4)nc3c(F)c(-c4nc(N)cc(C)c4C(F)(F)F)ccc23)[C@H]1C` [Compound 115] yielded an IC50 of less than 500 nM.

Turning to `C=CC(=O)N1CC[C@@H](N(C)c2nc(OC[C@@H]3CCCN3C)nc3c(F)c(-c4nc(N)cc(C)c4C(F)(F)F)c(C(F)(F)F)cc23)[C@H]1C` [Compound 122], the IC50 was less than 500 nM.

Compound `C=CC(=O)N1C[C@@H](C)N(c2nc(OC[C@@]34CCCN3C[C@H](F)C4)nc3c(F)c(-c4ccc(F)c5sc(N)c(C#N)c45)c(C(F)(F)F)cc23)C[C@@H]1C` [Compound 124] showed an IC50 of less than 500 nM.

Take `C=CC(=O)N1CC[C@@H](N(CC)c2nc(OC[C@@H]3CCCN3C)nc3cc(-c4ccc(F)c5sc(N)c(C#N)c45)c(F)cc23)[C@H]1C` [Compound 138]: the IC50 is less than 500 nM.

Take `C=CC(=O)N1CC[C@@H](N(CC)c2nc(OC[C@@H]3C[C@@H](F)CN3C)nc3cc(-c4ccc(F)c5sc(N)c(C#N)c45)c(F)cc23)[C@H]1C` [Compound 139]: the half-maximal inhibitory concentration (IC50) was less than 500 nM.

For the compound `C=CC(=O)N1CC[C@@H](N(CC)c2nc(OC[C@@H]3C[C@@H](OC)CN3C)nc3cc(-c4ccc(F)c5sc(N)c(C#N)c45)c(F)cc23)[C@H]1C` [Compound 140], the IC50 was less than 500 nM.

`C=CC(=O)N1CC[C@@H](N(CC)c2nc(OC[C@@H]3CCCN3C)nc3c(F)c(-c4ccc(F)c5sc(N)c(C#N)c45)ccc23)[C@H]1C` [Compound 141] displayed an IC50 of less than 500 nM.

On to `C=CC(=O)N1CC[C@@H](N(CC)c2nc(OC[C@@H]3C[C@@H](F)CN3C)nc3c(F)c(-c4ccc(F)c5sc(N)c(C#N)c45)ccc23)[C@H]1C` [Compound 142], for which the IC50 was less than 500 nM.

In turn, `C=CC(=O)N1CC[C@@H](N(C)c2nc(OC[C@@H]3C[C@@H](F)CN3CC)nc3c(F)c(-c4ccc(F)c5sc(N)c(C#N)c45)c(C(F)(F)F)cc23)[C@@H]1C` [Compound 144] gave an IC50 of less than 500 nM.

`C=CC(=O)N1CC[C@@H](N(C)c2nc(OC[C@@H]3C[C@@H](F)CN3C)nc3c(F)c(-c4nc(N)cc(C)c4C(F)(F)F)c(C(F)(F)F)cc23)[C@H]1C` [Compound 145] yielded an IC50 of less than 500 nM.

On to `C=CC(=O)N1C[C@H](N(C)c2nc(OC[C@@H]3CCCN3C)nc3c(F)c(-c4ccc(F)c5sc(N)c(C#N)c45)c(C(F)(F)F)cc23)C[C@H]1C` [Compound 147], for which the IC50 was less than 500 nM.

`C=CC(=O)N1C[C@H](N(C)c2nc(OC[C@@]34CCCN3C[C@H](F)C4)nc3cc(-c4ccc(F)c5sc(N)c(C#N)c45)c(F)cc23)C[C@H]1C` [Compound 148] displayed an IC50 of less than 500 nM.

In turn, `C=CC(=O)N1CC[C@@H](N(CC)c2nc(OC[C@@]34CCCN3C[C@H](OC)C4)nc3cc(-c4ccc(F)c5sc(N)c(C#N)c45)c(F)cc23)[C@H]1C` [Compound 149] registered an IC50 of less than 500 nM.

On to `C=CC(=O)N1CC[C@@H](N(CC)c2nc(OC[C@@]34CCCN3C[C@H](OC)C4)nc3c(F)c(-c4ccc(F)c5sc(N)c(C#N)c45)c(C(F)(F)F)cc23)[C@H]1C` [Compound 150], for which the IC50 was less than 500 nM.

In turn, `C=CC(=O)N1CC[C@@H](N(C)c2nc(OC[C@@]34CCCN3C[C@H](OC)C4)nc3c(F)c(-c4ccc(F)c5sc(N)c(C#N)c45)c(C(F)(F)F)cc23)[C@H]1C` [Compound 151] came in with an IC50 of less than 500 nM.

For `C=CC(=O)N1C[C@H](N(C)c2nc(OC[C@@H]3CCCN3C)nc3c(F)c(-c4ccc(F)c5sc(N)c(C#N)c45)c(C(F)(F)F)cc23)C[C@@H]1C` [Compound 153], the IC50 is less than 500 nM.

`C=CC(=O)N1CC[C@@H](N(CC)c2nc(OC[C@@H]3CCCN3C)nc3c(F)c(-c4nc(N)cc(C)c4C(F)(F)F)c(C(F)(F)F)cc23)[C@H]1C` [Compound 155] registered an IC50 of less than 500 nM.

`C=CC(=O)N1CC[C@@H](N(C)c2nc(OC[C@]34CCCN3C[C@H](OC)C4)nc3c(F)c(-c4ccc(F)c5sc(N)c(C#N)c45)c(C(F)(F)F)cc23)[C@H]1C` [Compound 156] displayed an IC50 of less than 500 nM.

Take `C=CC(=O)N1CC[C@@H](N(CC)c2nc(OC[C@]34CCCN3C[C@H](OC)C4)nc3c(F)c(-c4ccc(F)c5sc(N)c(C#N)c45)c(C(F)(F)F)cc23)[C@H]1C` [Compound 158]: the IC50 was less than 500 nM.

`C=CC(=O)N1CC[C@@H](N(CC)c2nc(OC[C@]34CCCN3C[C@H](F)C4)nc3c(F)c(-c4ccc(F)c5sc(N)c(C#N)c45)c(C(F)(F)F)cc23)[C@H]1C` [Compound 159] showed an IC50 of less than 500 nM.

In the case of `C=CC(=O)N1CC[C@@H](N(C)c2nc(OC[C@]34CCCN3C[C@H](OC)C4)nc3c(F)c(-c4ccc(F)c5sc(N)c(C#N)c45)c(Cl)cc23)[C@H]1C` [Compound 161], the concentration for half-maximal inhibition (IC50) is less than 500 nM.

`C=CC(=O)N1CC[C@@H](N(CC)c2nc(OC[C@@]34CCCN3C[C@H](OC)C4)nc3c(F)c(-c4ccc(F)c5sc(N)c(C#N)c45)c(Cl)cc23)[C@H]1C` [Compound 163]: the IC50 was less than 500 nM.

Compound `C=CC(=O)N1CC[C@@H](N(CC)c2nc(OC[C@]34CCCN3C[C@H](OC)C4)nc3c(F)c(-c4ccc(F)c5sc(N)c(C#N)c45)c(Cl)cc23)[C@H]1C` [Compound 164] returned an IC50 of less than 500 nM.

These data come from patent US20260232666A1, “COMPOSITIONS AND METHODS FOR INHIBITION OF RAS” (TheRas, Inc., priority 2023, published 2026).
